Measurements: patent publication US7777047B2, “Indole compound” (Takeda Pharmaceutical Company Limited, priority 2006, dated 2010)

Assays:
[1] = biological target: T1, GST-hLGK1 (human liver GK) (Homo sapiens, UniProt P35557); assay: Determination of GK activity value (GST-hLGK1, Mant-ATP, capillary electrophoresis); assay type: biochemical; conditions: glucokinase activation; GST-hLGK1, D-glucose, 37° C. for 60 min; concentration at midpoint between maximum activity value and control group activity value
T1 construct: made in house; host or cells: Escherichia coli BL21 (Stratagene), plasmid pGEX6P-2/hLGK1
T1 sequence (P35557 1-464 isoform P35557-3): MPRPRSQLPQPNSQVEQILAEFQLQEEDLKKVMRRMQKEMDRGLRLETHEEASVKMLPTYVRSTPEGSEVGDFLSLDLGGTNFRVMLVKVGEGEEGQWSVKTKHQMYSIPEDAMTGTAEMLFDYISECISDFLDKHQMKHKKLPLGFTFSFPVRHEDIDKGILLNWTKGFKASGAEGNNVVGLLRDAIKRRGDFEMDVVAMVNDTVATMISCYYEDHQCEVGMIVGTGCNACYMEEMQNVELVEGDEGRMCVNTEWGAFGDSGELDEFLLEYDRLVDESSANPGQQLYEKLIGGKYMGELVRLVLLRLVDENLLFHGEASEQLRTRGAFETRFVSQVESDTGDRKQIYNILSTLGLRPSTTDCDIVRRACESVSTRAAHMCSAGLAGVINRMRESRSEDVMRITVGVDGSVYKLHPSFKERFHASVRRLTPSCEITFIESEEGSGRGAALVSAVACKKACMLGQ
Method: Plasmid DNA to be used for the expression of a protein (GST-hLGK1) containing GST (Glutathione S-transferase) added to the amino terminal of human liver GK in Escherichia coli was prepared as follows.
BL21 strain (Stratagene) transformed with pGEX6P-2/hLGK1 obtained in Reference Example 1A was cultured with shaking at 37° C. for 14 hr in a 200 ml Erlenmeyer flask containing 50 ml of 100 μg/ml ampicillin-containing LB medium. The culture medium (25 ml) was diluted with 225 ml of 100 μg/ml ampicillin-containing LB medium, and further cultured with shaking at 37° C. for 1 hr in a 1 L Erlenmeyer flask. After culture, the Erlenmeyer flask was cooled on ice, 125 μL of 100 mM isopropyl-thio-β-D-galactopyranoside (IPTG) was added (final concentration 50 μM), and cultured at 17° C. for 20 hr. The culture medium was centrifuged, and the obtained fungus was disrupted by ultrasonication. The object protein (GST-hLGK1) was purified from the supernatant using Glutathione Sepharose 4B (Amersham Biosciences K.K.).
A solution (5 μL) of test compound in 50% dimethyl sulfoxide was added to each well of 384 well black plate (Nalge Nunc International K.K.). Then, a solution ([…]) obtained by diluting GST-hLGK1 obtained in Reference Example 2A with measurement buffer (containing 50 mM HEPES (pH 7.4), 200 mM KCl, 5 mM MgCl2, 2.5 mM DTT and 50 μM 2′-(or-3′)-O—(N-methylanthraniloyl)adenosine 5′-triphosphate (Mant-ATP) (Jena Bioscience GmbH)) to 6 μg/mL was added to each well.
Each well was stood at 37° C. for 10 min, and 25 mM D-glucose solution (10 μL) was added to start the reaction.
Each well after the reaction was stood at 37° C. for 60 min, and the reaction was quenched by adding 25 μL of a quenching solution (containing 200 mM HEPES (pH 7.4), 20 mM MgCl2, 200 mM EDTA, 0.03% Triton-X 100, 0.3% Coating 3 reagent (Caliper Life Sciences, Inc.)).
2′-(or-3′)-O—(N-methylanthraniloyl)adenosine 5′-triphosphate (Mant-ATP, substrate) and Mant-ADP (reaction resultant product) were separated from each well after the reaction by a microchip type capillary electrophoresis apparatus 250 HTS (Caliper Life Sciences, Inc.). The reaction rate [(reaction resultant product peak height)/(reaction resultant product peak height+substrate peak height)×100(%)] was calculated from the ratio of the substrate peak height and reaction resultant product peak height obtained by fluorescence detection (excitation wavelength 355 nm, measurement wavelength 460 nm) and used as the index of GK activity.
As a control group, the reaction rate was calculated in the same manner as above except that “solution in 50% dimethyl sulfoxide (without test compound)” was used instead of “solution of test compound in 50% dimethyl sulfoxide”.
A concentration dependency curve of the test compound was drawn with the percentage obtained by dividing the reaction rate of the well added with the test compound (test compound addition group) by the reaction rate of the control group was taken as the GK activity value of the test compound, and the concentration of the test compound at the midpoint between the maximum activity value of the test compound addition group and the control group activity value is shown as EC50 value.

EC50 [1] [nM] | melting point [°C] | SMILES
200 | – | COCCOc1cc(N(C)S(=O)(=O)c2ccccn2)c2[nH]c(C3=N[C@@H](CO)CS3)cc2c1 [Example 254, N-[2-[(4S)-4-(hydroxymethyl)-4,5-dihydro-1,3-thiazol-2-yl]-5-(2-methoxyethoxy)-1H-indol-7-yl]-N-methylpyridine-2-sulfonamide]
260 | – | COCCOc1cc(N(C)S(=O)(=O)c2ccccn2)c2[nH]c(C3=NCC(CN4CCS(=O)(=O)CC4)S3)cc2c1 (single isomer, unassigned) [Example 528, N-[2-{5-[(1,1-dioxidothiomorpholino)methyl]-4,5-dihydro-1,3-thiazol-2-yl}-5-(2-methoxyethoxy)-1H-indol-7-yl]-N-methylpyridine-2-sulfonamide]
31 | – | CC(=O)N1CCN(Cc2cnc(-c3cc4c(Cl)ccc(N(C)S(=O)(=O)c5cccs5)c4[nH]3)s2)CC1 [Example 191, N-(2-{5-[(4-acetylpiperazin-1-yl)methyl]-1,3-thiazol-2-yl}-4-chloro-1H-indol-7-yl)-N-methylthiophene-2-sulfonamide]
190 | – | CN(c1cc(OC(F)(F)F)cc2cc(C3=NCC(CC(N)=O)S3)[nH]c12)S(=O)(=O)c1cccs1 (single isomer, unassigned) [Example 520, 2-{2-[7-[methyl(2-thienylsulfonyl)amino]-5-(trifluoromethoxy)-1H-indol-2-yl]-4,5-dihydro-1,3-thiazol-5-yl}acetamide]
– | 208 to 209 | COc1ccccc1S(=O)(=O)N(C)c1cccc2cc(C3=NCC(CC(=O)Nc4nnc[nH]4)S3)[nH]c12 (stereo not shown) [Example 310, 2-(2-{7-[[(2-methoxyphenyl)sulfonyl](methyl)amino]-1H-indol-2-yl}-4,5-dihydro-1,3-thiazol-5-yl)-N-4H-1,2,4-triazol-3-ylacetamide]
– | 168 to 169 | CN(c1cc(OCCCS(C)(=O)=O)cc2cc(C3=NCC(CN4CCOCC4)S3)[nH]c12)S(=O)(=O)c1ccccn1 (stereo not shown) [Example 321, N-methyl-N-{5-[3-(methylsulfonyl)propoxy]-2-[5-(morpholinomethyl)-4,5-dihydro-1,3-thiazol-2-yl]-1H-indol-7-yl}pyridine-2-sulfonamide]
– | 185 to 186 | O=S(=O)(c1cccs1)N(c1cccc2cc(C3=NCC(CN4CCOCC4)S3)[nH]c12)C(F)F (stereo not shown) [Example 346, N-(difluoromethyl)-N-{2-[5-(morpholinomethyl)-4,5-dihydro-1,3-thiazol-2-yl]-1H-indol-7-yl}thiophene-2-sulfonamide]
– | 232 to 234 | CN(c1cccc2cc(C3=NCC(CC(=O)O)S3)[nH]c12)S(=O)(=O)c1cccs1 (stereo not shown) [Example 284, (2-{7-[methyl(2-thienylsulfonyl)amino]-1H-indol-2-yl}-4,5-dihydro-1,3-thiazol-5-yl)acetic acid]
– | 120 to 121 | Cc1ccc(N(C)S(=O)(=O)c2cccs2)c2[nH]c(C3=NCC(CC(N)=O)S3)cc12 (stereo not shown) [Example 293, 2-(2-{4-methyl-7-[methyl(2-thienylsulfonyl)amino]-1H-indol-2-yl}-4,5-dihydro-1,3-thiazol-5-yl)acetamide]
– | 153 to 154 | CN(c1cccc2cc(C3=NCC(CCO)S3)[nH]c12)S(=O)(=O)c1ccccc1C(F)(F)F (stereo not shown) [Example 315, N-{2-[5-(2-hydroxyethyl)-4,5-dihydro-1,3-thiazol-2-yl]-1H-indol-7-yl}-N-methyl-2-(trifluoromethyl)benzenesulfonamide]
– | 170 to 172 | CN(c1cccc2cc(C3=NCC(CC(=O)O)S3)[nH]c12)S(=O)(=O)c1ccccc1C(F)(F)F (stereo not shown) [Example 314, {2-[7-(methyl{[2-(trifluoromethyl)phenyl]sulfonyl}amino)-1H-indol-2-yl]-4,5-dihydro-1,3-thiazol-5-yl}acetic acid]
– | 156 to 158 | O=S(=O)(Nc1cccc2cc(C3=NCC(CCO)S3)[nH]c12)c1cccs1 (stereo not shown) [Example 295, N-{2-[5-(2-hydroxyethyl)-4,5-dihydro-1,3-thiazol-2-yl]-1H-indol-7-yl}thiophene-2-sulfonamide]
– | 151 to 153 | CN(c1cc(OCCCS(C)(=O)=O)cc2cc(C3=NCC(CN4CCN(S(C)(=O)=O)CC4)S3)[nH]c12)S(=O)(=O)c1ccccn1 (stereo not shown) [Example 325, N-methyl-N-{2-(5-{[4-(methylsulfonyl)piperazin-1-yl]methyl}-4,5-dihydro-1,3-thiazol-2-yl)-5-[3-(methylsulfonyl)propoxy]-1H-indol-7-yl}pyridine-2-sulfonamide]
– | 142 to 144 | CN(c1cccc2cc(C3=NCC(CN4CCSCC4)S3)[nH]c12)S(=O)(=O)c1ccccn1 (stereo not shown) [Example 303, N-methyl-N-{2-[5-(thiomorpholinomethyl)-4,5-dihydro-1,3-thiazol-2-yl]-1H-indol-7-yl}pyridine-2-sulfonamide]
– | 153 to 154 | CON(C)C(=O)CC1CN=C(c2cc3cccc(N(C)S(=O)(=O)c4cccs4)c3[nH]2)S1 (stereo not shown) [Example 299, N-methoxy-N-methyl-2-(2-{7-[methyl(2-thienylsulfonyl)amino]-1H-indol-2-yl}-4,5-dihydro-1,3-thiazol-5-yl)acetamide]
– | 231 to 233 | CN(c1cccc2cc(C3=NCC(CC(=O)O)S3)[nH]c12)S(=O)(=O)c1ccccn1 (stereo not shown) [Example 333, (2-{7-[methyl(pyridin-2-ylsulfonyl)amino]-1H-indol-2-yl}-4,5-dihydro-1,3-thiazol-5-yl)acetic acid]
– | 130 to 131 | NC(=O)CC1CN=C(c2cc3cccc(NS(=O)(=O)c4cccs4)c3[nH]2)S1 (stereo not shown) [Example 297, 2-(2-{7-[(2-thienylsulfonyl)amino]-1H-indol-2-yl}-4,5-dihydro-1,3-thiazol-5-yl)acetamide]
– | 157 to 158 | C=CC(=O)CC1CN=C(c2cc3cccc(N(C)S(=O)(=O)c4cccs4)c3[nH]2)S1 (stereo not shown) [Example 301, N-methyl-N-{2-[5-(2-oxobut-3-en-1-yl)-4,5-dihydro-1,3-thiazol-2-yl]-1H-indol-7-yl}thiophene-2-sulfonamide]
– | 149 to 150 | CN1CCC(CC2CN=C(c3cc4cccc(N(C)S(=O)(=O)c5cccs5)c4[nH]3)S2)=N1 (stereo not shown) [Example 302, N-methyl-N-(2-{5-[(1-methyl-4,5-dihydro-1H-pyrazol-3-yl)methyl]-4,5-dihydro-1,3-thiazol-2-yl}-1H-indol-7-yl)thiophene-2-sulfonamide]
– | 161 to 162 | CN(c1cccc2cc(C3=NCC(CN4CC[S+]([O-])CC4)S3)[nH]c12)S(=O)(=O)c1nccn1C (stereo not shown) [Example 320, N,1-dimethyl-N-(2-{5-[(1-oxidothiomorpholino)methyl]-4,5-dihydro-1,3-thiazol-2-yl}-1H-indol-7-yl)-1H-imidazole-2-sulfonamide]
– | 206 to 207 | CN(c1cccc2cc(C3=NCC(CC(N)=O)S3)[nH]c12)S(=O)(=O)c1ccccn1 (stereo not shown) [Example 334, 2-(2-{7-[methyl(pyridin-2-ylsulfonyl)amino]-1H-indol-2-yl}-4,5-dihydro-1,3-thiazol-5-yl)acetamide]
– | 227 to 228 | COc1ccccc1S(=O)(=O)N(C)c1cccc2cc(C3=NCC(CC(N)=O)S3)[nH]c12 (stereo not shown) [Example 308, 2-(2-{7-[[(2-methoxyphenyl)sulfonyl](methyl)amino]-1H-indol-2-yl}-4,5-dihydro-1,3-thiazol-5-yl)acetamide]
